Data taken from US12660819B2, “Herbicidal derivatives” (SYNGENTA CROP PROTECTION AG, priority 2020, dated 2026).

How the values were obtained:
Type in all cases: in vivo
[1] = test system: Amaranthus palmeri (AMAPA); assay: Post-emergence Test (glasshouse, percentage damage to the plant); conditions: post-emergence; 1000 g/ha unless otherwise stated; evaluated after 13 days
How it was run: (§1)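 Seeds sown in pots in glasshouse (24/16 °C day/night, 14 h light, 65% humidity), then sprayed with compound at 1000 g/ha unless stated, from acetone/water 50:50 with 0.5% Tween 20. Damage assessed 13 days later on five-point scale (1=0–20% to 5=81–100%).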

[2] = test system: Amaranthus retoflexus (AMARE); assay: as above; conditions: post-emergence; 1000 g/ha unless otherwise stated; evaluated after 13 days
How it was run: as §1

[3] = test system: Echinochloa crus-galli (ECHCG); assay: as above; conditions: post-emergence; 1000 g/ha unless otherwise stated; evaluated after 13 days
How it was run: as §1

[4] = test system: Ipomoea hederacea (IPOHE); assay: as above; conditions: post-emergence; 1000 g/ha unless otherwise stated; evaluated after 13 days
How it was run: (§2)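 Damage was rated 13 days after treatment and expressed on a five-point scale: 5=81-100%, 4=61-80%, 3=41-60%, 2=21-40%, 1=0-20%. Spray was applied at 1000 g/ha unless otherwise stated, from acetone/water (50:50) with 0.5% Tween 20, to sown pots.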

[5] = test system: Setaria faberi (SETFA); assay: as above; conditions: post-emergence; 1000 g/ha unless otherwise stated; evaluated after 13 days
How it was run: as §2

[6] = test system: Zea mays (ZEAMX); assay: as above; conditions: post-emergence; 1000 g/ha unless otherwise stated; evaluated after 13 days
How it was run: as §2

[7] = test system: Amaranthus retoflexus (AMARE); assay: Pre-emergence Test (glasshouse, percentage damage to the plant); conditions: 1000 g/ha unless otherwise stated, Amaranthus retoflexus
[8] = test system: Setaria faberi (SETFA); assay: as above; conditions: 1000 g/ha unless otherwise stated, Setaria faberi
[9] = test system: Echinochloa crus-galli (ECHCG); assay: as above; conditions: 1000 g/ha unless otherwise stated, Echinochloa crus-galli
[10] = test system: Ipomoea hederacea (IPOHE); assay: as above; conditions: 1000 g/ha unless otherwise stated, Ipomoea hederacea
[11] = test system: Zea mays (ZEAMX); assay: as above; conditions: 1000 g/ha unless otherwise stated, Zea mays
[12] = test system: Amaranthus palmeri (AMAPA); assay: as above; conditions: 1000 g/ha unless otherwise stated, Amaranthus palmeri

Row | Structure (SMILES) | AMAPA, percentage damage caused to the plant (five-point scale) [1] | AMARE, percentage damage caused to the plant (five-point scale) [2] | ECHCG, percentage damage caused to the plant (five-point scale) [3] | IPOHE, percentage damage caused to the plant (five-point scale) [4] | SETFA, percentage damage caused to the plant (five-point scale) [5] | ZEAMX, percentage damage caused to the plant (five-point scale) [6] | percentage damage to the plant, AMARE (five-point scale) [7] | percentage damage to the plant, SETFA (five-point scale) [8] | percentage damage to the plant, ECHCG (five-point scale) [9] | percentage damage to the plant, IPOHE (five-point scale) [10] | percentage damage to the plant, ZEAMX (five-point scale) [11] | percentage damage to the plant, AMAPA (five-point scale) [12]
1 | CCn1c(C)c(-c2ccc3ccccc3n2)c(=O)c(C(=O)O)c1-c1ccc(Cl)c(Cl)c1 [Compound 219, 2-(3,4-dichlorophenyl)-1-ethyl-6-methyl-4-oxo-5-(2-quinolyl)pyridine-3-carboxylic acid] | 3 (3=41-60%) | 3 (3=41-60%) | 1 (1=0-20%) | 3 (3=41-60%) | 1 (1=0-20%) | 0 | 0 | 1 (1=0-20%) | 0 | 0 | 0 | 1 (1=0-20%)
2 | CCn1c(C)c(-c2ccc(Cl)cc2F)c(=O)c(C(=O)O)c1-c1cnc(Cl)c(Cl)c1 [Compound 242, 5-(4-chloro-2-fluoro-phenyl)-2-(5,6-dichloro-3-pyridyl)-1-ethyl-6-methyl-4-oxo-pyridine-3-carboxylic acid] | 5 (5=81-100%) | 5 (5=81-100%) | 5 (5=81-100%) | 4 (4=61-80%) | 5 (5=81-100%) | 4 (4=61-80%) | 4 (4=61-80%) | 5 (5=81-100%) | 5 (5=81-100%) | 4 (4=61-80%) | 2 (2=21-40%) | 5 (5=81-100%)
3 | CCn1c(C)c(-c2cc(OCCOC)c(Cl)cc2F)c(=O)c(C(=O)O)c1-c1ccc(Cl)c(Cl)c1 [Compound 244, 5-[4-chloro-2-fluoro-5-(2-methoxyethoxy)phenyl]-2-(3,4-dichlorophenyl)-1-ethyl-6-methyl-4-oxo-pyridine-3-carboxylic acid] | 5 (5=81-100%) | 5 (5=81-100%) | 5 (5=81-100%) | 3 (3=41-60%) | 5 (5=81-100%) | 5 (5=81-100%) | 5 (5=81-100%) | 5 (5=81-100%) | 5 (5=81-100%) | 3 (3=41-60%) | 0 | 5 (5=81-100%)
4 | CCn1c(C)c(-c2cc(OC(C)C)c(Cl)cc2F)c(=O)c(C(=O)O)c1-c1ccc(Cl)c(Cl)c1 [Compound 245, 5-(4-chloro-2-fluoro-5-isopropoxy-phenyl)-2-(3,4-dichlorophenyl)-1-ethyl-6-methyl-4-oxo-pyridine-3-carboxylic acid] | 5 (5=81-100%) | 5 (5=81-100%) | 5 (5=81-100%) | 4 (4=61-80%) | 5 (5=81-100%) | 3 (3=41-60%) | 5 (5=81-100%) | 5 (5=81-100%) | 5 (5=81-100%) | 2 (2=21-40%) | 0 | 5 (5=81-100%)
5 | CCn1c(C)c(-c2cc(OCC3CC3)c(Cl)cc2F)c(=O)c(C(=O)O)c1-c1ccc(Cl)c(Cl)c1 [Compound 246, 5-[4-chloro-5-(cyclopropylmethoxy)-2-fluoro-phenyl]-2-(3,4-dichlorophenyl)-1-ethyl-6-methyl-4-oxo-pyridine-3-carboxylic acid] | 5 (5=81-100%) | 5 (5=81-100%) | 4 (4=61-80%) | 2 (2=21-40%) | 3 (3=41-60%) | 3 (3=41-60%) | 5 (5=81-100%) | 2 (2=21-40%) | 4 (4=61-80%) | 0 | 0 | 5 (5=81-100%)
6 | Cc1c(-c2ccc(Cl)cc2Cl)c(=O)c(C(=O)O)c(-c2ccc(Cl)c(Cl)c2)n1C [Compound 251, 5-(2,4-dichlorophenyl)-2-(3,4-dichlorophenyl)-1,6-dimethyl-4-oxo-pyridine-3-carboxylic acid] | 3 (3=41-60%) | 4 (4=61-80%) | 1 (1=0-20%) | 0 | 0 | 1 (1=0-20%) | 1 (1=0-20%) | 0 | 0 | 0 | 0 | 2 (2=21-40%)
7 | Cc1c(-c2ccc(F)cc2F)c(=O)c(C(=O)O)c(-c2ccc(Cl)c(Cl)c2)n1C [Compound 252, 2-(3,4-dichlorophenyl)-5-(2,4-difluorophenyl)-1,6-dimethyl-4-oxo-pyridine-3-carboxylic acid] | 5 (5=81-100%) | 4 (4=61-80%) | 5 (5=81-100%) | 2 (2=21-40%) | 4 (4=61-80%) | 2 (2=21-40%) | 3 (3=41-60%) | 4 (4=61-80%) | 5 (5=81-100%) | 3 (3=41-60%) | 0 | 5 (5=81-100%)
8 | Cc1c(-c2ccc(Cl)cc2F)c(=O)c(C(=O)O)c(-c2ccc(Cl)c(Cl)c2)n1C [Compound 253, 5-(4-chloro-2-fluoro-phenyl)-2-(3,4-dichlorophenyl)-1,6-dimethyl-4-oxo-pyridine-3-carboxylic acid] | 5 (5=81-100%) | 5 (5=81-100%) | 5 (5=81-100%) | 3 (3=41-60%) | 5 (5=81-100%) | 3 (3=41-60%) | 5 (5=81-100%) | 5 (5=81-100%) | 5 (5=81-100%) | 4 (4=61-80%) | 1 (1=0-20%) | 5 (5=81-100%)
9 | CCn1c(C)c(-c2ccc(Cl)cc2)c(=O)c(C(=O)O)c1-c1ccc(F)c(Cl)c1 [Compound 258, 2-(3-chloro-4-fluoro-phenyl)-5-(4-chlorophenyl)-1-ethyl-6-methyl-4-oxo-pyridine-3-carboxylic acid] | 5 (5=81-100%) | 4 (4=61-80%) | 5 (5=81-100%) | 3 (3=41-60%) | 5 (5=81-100%) | 5 (5=81-100%) | 5 (5=81-100%) | 5 (5=81-100%) | 5 (5=81-100%) | 1 (1=0-20%) | 1 (1=0-20%) | 5 (5=81-100%)
